In US20230295087A1, “AGONISTS OF ROR GAMMAt” (BRISTOL-MYERS SQUIBB COMPANY, priority 2019, published 2023):

Molecular target: T1, human RORgT (Homo sapiens, UniProt P51449)
T1 construct: expressed in transfected cells
T1 sequence (P51449 267-516): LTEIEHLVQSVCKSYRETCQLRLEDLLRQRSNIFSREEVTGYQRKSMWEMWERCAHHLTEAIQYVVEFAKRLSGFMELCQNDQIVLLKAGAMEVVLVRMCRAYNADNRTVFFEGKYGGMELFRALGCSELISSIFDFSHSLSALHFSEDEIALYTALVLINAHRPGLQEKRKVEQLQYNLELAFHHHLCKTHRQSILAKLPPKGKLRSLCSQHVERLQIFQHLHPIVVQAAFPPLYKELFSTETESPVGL
Test: RORgT Gal4 Luciferase Reporter Gene Assay
Type: cell-based
Conditions: engineered Jurkat cells overexpressing RORgT (LBD or full length) fused with Gal4 Luc reporter; 18 hours at 37° C.; luminescence
Outline: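 Jurkat cells expressing Gal4 Luc with either RORgT LBD (aa267-516) or full-length human RORgT, 10,000 cells/well, treated with compound (40 µM to 0.67 nM final, 3-fold dilutions) for 18 h at 37° C. Steady-Glo luminescence read; inhibition of constitutive activity as % signal-window reduction relative to a control compound.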

| Compound | EC50 |
| --- | --- |
| O=C(C1CCS(=O)(=O)CC1)N1CC[C@@]2(S(=O)(=O)c3ccc(F)cc3)c3ccc(CCc4c(Cl)cccc4Cl)cc3CC[C@@H]12 [Example 161, 4-[(3aR,9bR)-7-[2-(2,6-dichlorophenyl)ethyl]-9b-(4-fluorobenzenesulfonyl)-1H,2H,3H,3aH,4H,5H,9bH-benzo[e]indole-3-carbonyl]-1λ^6-thiane-1,1-dione] | 5.8 nM |
| NC(=O)N1CCC(C(=O)N2CC[C@@]3(S(=O)(=O)c4ccc(F)cc4)c4ccc(CCc5c(Cl)cccc5Cl)cc4CC[C@@H]23)CC1 [Example 162, 4-[(3aR,9bR)-7-[2-(2,6-dichlorophenyl)ethyl]-9b-(4-fluorobenzenesulfonyl)-1H,2H,3H,3aH,4H5H,9bH-benzo[e]indole-3-carbonyl]piperidine-1-carboxamide] | 8.1 nM |
| O=C(C1CCS(=O)(=O)C1)N1CC[C@@]2(S(=O)(=O)c3ccc(F)cc3)c3ccc(OCc4c(F)cccc4Cl)cc3CC[C@@H]12 (stereo partly drawn) [Example 163, 3-[(3aR,9bR)-7-[(2-chloro-6-fluorophenyl)methoxy]-9b-(4-fluorobenzenesulfonyl)-1H,2H,3H,3aH,4H,5H,9bH-benzo[e]indole-3-carbonyl]-1λ^6-thiolane-1,1-dione] | 12 nM |
| CS(=O)(=O)N1CCC(C(=O)N2CC[C@@]3(S(=O)(=O)c4ccc(F)cc4)c4ccc(OCc5c(F)cccc5Cl)cc4CC[C@@H]23)CC1 [Example 164, 4-[(3aR,9bR)-7-[(2-chloro-6-fluorophenyl)methoxy]-9b-(4-fluorobenzenesulfonyl)-1H,2H,3H,3aH,4H,5H,9bH-benzo[e]indole-3-carbonyl]-1-methanesulfonylpiperidine] | 24 nM |
| O=C(CN1CCS(=O)(=O)CC1)N1CC[C@@]2(S(=O)(=O)c3ccc(F)cc3)c3ccc(OCc4c(F)cccc4Cl)cc3CC[C@@H]12 [Example 165, 4-{2-[(3aR,9bR)-7-[(2-chloro-6-fluorophenyl)methoxy]-9b-(4-fluorobenzenesulfonyl)-1H,2H,3H,3aH,4H,5H,9bH-benzo[e]indol-3-yl]-2-oxoethyl}-1λ^6-thiomorpholine-1,1-dione] | 11 nM |
| O=C(C1CCS(=O)(=O)CC1)N1CC[C@@]2(S(=O)(=O)c3ccc(F)cc3)c3ccc(OCc4c(F)cccc4Cl)cc3CC[C@@H]12 [Example 166, 4-[(3aR,9bR)-7-[(2-chloro-6-fluorophenyl)methoxy]-9b-(4-fluorobenzenesulfonyl)-1H,2H,3H,3aH,4H,5H,9bH-benzo[e]indole-3-carbonyl]-1λ^6-thiane-1,1-dione] | 7.8 nM |
| CC(=O)N1CCC(C(=O)N2CC[C@@]3(S(=O)(=O)c4ccc(F)cc4)c4ccc(OCc5c(F)cccc5Cl)cc4CC[C@@H]23)CC1 [Example 167, 1-{4-[(3aR,9bR)-7-[(2-chloro-6-fluorophenyl)methoxy]-9b-(4-fluorobenzenesulfonyl)-1H,2H,3H,3aH,4H,5H,9bH-benzo[e]indole-3-carbonyl]piperidin-1-yl}ethan-1-one] | 13 nM |
| COC(=O)[C@H]1CC[C@H](C(=O)N2CC[C@@]3(S(=O)(=O)c4ccc(F)cc4)c4ccc(OCc5c(Cl)cccc5Cl)cc4CC[C@@H]23)CC1 [Example 169, methyl(1r,4r)-4-[(3aR,9bR)-7-[(2,6-dichlorophenyl)methoxy]-9b-(4-fluorobenzenesulfonyl)-1H,2H,3H,3aH,4H,5H,9bH-benzo[e]indole-3-carbonyl]cyclohexane-1-carboxylate] | 37 nM |
| O=C(C1CCS(=O)(=O)C1)N1CC[C@@]2(S(=O)(=O)c3ccc(F)cc3)c3ccc(OCc4c(Cl)cccc4Cl)cc3CC[C@@H]12 (stereo partly drawn) [Example 170, 3-[(3aR,9bR)-7-[(2,6-dichlorophenyl)methoxy]-9b-(4-fluorobenzenesulfonyl)-1H,2H,3H,3aH,4H,5H,9bH-benzo[e]indole-3-carbonyl]-1λ^6-thiolane-1,1-dione] | 14 nM |

The remaining lines, values ahead:

| EC50 | Compound |
| --- | --- |
| 113 nM | CN1CCC(C(=O)N2CC[C@@]3(S(=O)(=O)c4ccc(F)cc4)c4ccc(OCc5c(Cl)cccc5Cl)cc4CC[C@@H]23)CC1 [Example 171, 4-[(3aR,9bR)-7-[(2,6-dichlorophenyl)methoxy]-9b-(4-fluorobenzenesulfonyl)-1H,2H,3H,3aH,4H,5H,9bH-benzo[e]indole-3-carbonyl]-1-methylpiperidine] |
| 19 nM | NC(=O)N1CCC(C(=O)N2CC[C@@]3(S(=O)(=O)c4ccc(F)cc4)c4ccc(OCc5c(Cl)cccc5Cl)cc4CC[C@@H]23)CC1 [Example 172, 4-[(3aR,9bR)-7-[(2,6-dichlorophenyl)methoxy]-9b-(4-fluorobenzenesulfonyl)-1H,2H,3H,3aH,4H,5H,9bH-benzo[e]indole-3-carbonyl]piperidine-1-carboxamide] |
| 14 nM | O=C(CN1CCS(=O)(=O)CC1)N1CC[C@@]2(S(=O)(=O)c3ccc(F)cc3)c3ccc(OCc4c(Cl)cccc4Cl)cc3CC[C@@H]12 [Example 173, 4-{2-[(3aR,9bR)-7-[(2,6-dichlorophenyl)methoxy]-9b-(4-fluorobenzenesulfonyl)-1H,2H,3H,3aH,4H,5H,9bH-benzo[e]indol-3-yl]-2-oxoethyl}-1λ^6-thiomorpholine-1,1-dione] |
| 26 nM | CC(=O)N1CCC(C(=O)N2CC[C@@]3(S(=O)(=O)c4ccc(F)cc4)c4ccc(OCc5cc(F)ccc5Cl)cc4CC[C@@H]23)CC1 [Example 174, 1-{4-[(3aR,9bR)-7-[(2-chloro-5-fluorophenyl)methoxy]-9b-(4-fluorobenzenesulfonyl)-1H,2H,3H,3aH,4H,5H,9bH-benzo[e]indole-3-carbonyl]piperidin-1-yl}ethan-1-one] |
| 9.5 nM | O=C(O)[C@H]1CC[C@H](C(=O)N2CC[C@@]3(S(=O)(=O)c4ccc(F)cc4)c4ccc(OCc5cc(F)ccc5Cl)cc4CC[C@@H]23)CC1 [Example 175, (1r,4r)-4-[(3aR,9bR)-7-[(2-chloro-5-fluorophenyl)methoxy]-9b-(4-fluorobenzenesulfonyl)-1H,2H,3H,3aH,4H,5H,9bH-benzo[e]indole-3-carbonyl]cyclohexane-1-carboxylic acid] |
| 56 nM | COC(=O)[C@H]1CC[C@H](C(=O)N2CC[C@@]3(S(=O)(=O)c4ccc(F)cc4)c4ccc(OCc5cc(F)ccc5Cl)cc4CC[C@@H]23)CC1 [Example 176, methyl (1r,4r)-4-[(3aR,9bR)-7-[(2-chloro-5-fluorophenyl)methoxy]-9b-(4-fluorobenzenesulfonyl)-1H,2H,3H,3aH,4H,5H,9bH-benzo[e]indole-3-carbonyl]cyclohexane-1-carboxylate] |
| 18 nM | CS(=O)(=O)N1CCC(C(=O)N2CC[C@@]3(S(=O)(=O)c4ccc(F)cc4)c4ccc(OCc5cc(F)ccc5Cl)cc4CC[C@@H]23)CC1 [Example 177, 4-[(3aR,9bR)-7-[(2-chloro-5-fluorophenyl)methoxy]-9b-(4-fluorobenzenesulfonyl)-1H,2H,3H,3aH,4H,5H,9bH-benzo[e]indole-3-carbonyl]-1-methanesulfonylpiperidine] |
| 12 nM | O=C(C1CCS(=O)(=O)C1)N1CC[C@@]2(S(=O)(=O)c3ccc(F)cc3)c3ccc(OCc4cc(F)ccc4Cl)cc3CC[C@@H]12 (stereo partly drawn) [Example 178, 3-[(3aR,9bR)-7-[(2-chloro-5-fluorophenyl)methoxy]-9b-(4-fluorobenzenesulfonyl)-1H,2H,3H,3aH,4H,5H,9bH-benzo[e]indole-3-carbonyl]-1λ^6-thiolane-1,1-dione] |
